Key:
Type in all cases: in vivo
[1] = Catalepsy (drug-induced catalepsy); conditions: rat, in vivo, po, rats; read-out: Catalepsy Induction ED50
From the text: (§1) 3. Catalepsy - drug-induced catalepsy in rats is predic-
(§2) tive of potential extrapyramidal symptoms (EPS) in man.
(§3) of: Costall, et al., Psychopharmacologia, 34, 233-241

[2] = test system: avoidance response to electrical shock in trained fasted rats; experiment: Conditioned Avoidance Response (CAR); conditions: Rattus norvegicus, po
From the text: Conditioned Avoidance Response (CAR) - measure of a
drug's tranquilizing activity as determined by its
attenuation of avoidance response to electrical shock
in trained fasted rats. cf: Albert, Pharmacologist, 4,

[3] = test system: neuroleptic-induced catalepsy in the rat; experiment: Catalepsy Reversal; conditions: po
From the text: 4. Catalepsy Reversal - measure of a drug's ability to
reverse neuroleptic-induced catalepsy in the rat.

[4] = test system: apomorphine-induced stereotypy in rats; experiment: Inhibition of Apomorphine-Induced (APO) Stereotypy; conditions: Rattus norvegicus, po
From the text: 2. Inhibition of Apomorphine-Induced (APO) Stereotypy -
an assessment of blockade of dopaminergic activity in
rats as measured by attenuation of the behavioral
syndrome caused by the dopamine agonist, apomorphine.
of: Janssen, et al., Arzneimittel. Forsch., 17, 841

[5] = test system: drug-induced catalepsy in rats; experiment: Catalepsy (drug-induced catalepsy); conditions: p.o.
From the text: as §1, §2, §3

For `Cc1cc2c(N3CCN(CCCCN4C(=O)SC5(CCCC5)C4=O)CC3)nccc2s1` [Example 30], the ED50 [1] was > 142 mg/kg, the ED50 [2] was 35 mg/kg and the ED50 [3] was > 20 mg/kg.

For `Cc1cc2c(N3CCN(CCCCN4C(=O)SC5(CCCC5)C4=O)CC3)nccc2o1` [Example 40], the ED50 [4] was 41 mg/kg and the ED50 [2] was 28 mg/kg.

With `Cn1ccc2c(N3CCN(CCCCN4C(=O)CC(C)(C)CC4=O)CC3)nccc21` [Example 49] the ED50 [4] was > 100 mg/kg, the ED50 [2] was 67 mg/kg and the ED50 [3] was > 20 mg/kg.

`O=C1SC2(CCCC2)C(=O)N1CCCCN1CCN(c2nccc3occc23)CC1` [Example 37] gave an ED50 [1] of 23 mg/kg, an ED50 [4] of 18 mg/kg and an ED50 [2] of 9 mg/kg. The ED50 [3] was > 20 mg/kg.

For `Cc1cc2c(N3CCN(CCCCN4C(=O)CC(C)(C)CC4=O)CC3)nccc2o1` [Example 41], the ED50 [1] was 40 mg/kg, the ED50 [4] was 22 mg/kg and the ED50 [2] was 14 mg/kg. The ED50 [3] was > 20 mg/kg.

In the case of `OC(CCCN1CCN(c2nccc3sccc23)CC1)c1ccc(F)cc1` (centres unmarked) [Example 27], the ED50 [1] was > 40 mg/kg, the ED50 [4] was 9 mg/kg and the ED50 [2] was 10 mg/kg. The ED50 [3] was > 20 mg/kg.

With `O=C1SC2(CCCC2)C(=O)N1CCCCN1CCN(c2nccc3sc(Br)cc23)CC1` [Example 28] the ED50 [4] was > 100 mg/kg, the ED50 [2] was > 100 mg/kg and the ED50 [3] was 16 mg/kg.

In the case of `Cn1ccc2c(N3CCN(CCCCN4C(=O)SC5(CCCC5)C4=O)CC3)nccc21` [Example 47], the ED50 [4] was 61 mg/kg, the ED50 [2] was 60 mg/kg and the ED50 [3] was > 20 mg/kg.

In the case of `CC1(C)CC(=O)N(CCCCN2CCN(c3nccc4sc(Br)cc34)CC2)C(=O)C1` [Example 29], the ED50 [2] was 65 mg/kg and the ED50 [3] was > 20 mg/kg.

For `OC(CCCN1CCN(c2nccc3occc23)CC1)c1ccc(F)cc1` (centres unmarked) [Example 39], the ED50 [1] was 11 mg/kg, the ED50 [4] was 5 mg/kg and the ED50 [2] was 3 mg/kg. For the same compound, the ED50 [3] was > 20 mg/kg.

With `O=C1CSCC(=O)N1CCCCN1CCN(c2nccc3occc23)CC1` [Example 42] the ED50 [4] was 63 mg/kg, the ED50 [2] was 36 mg/kg and the ED50 [3] was > 20 mg/kg.

With `CC1(C)CC(=O)N(CCCCN2CCN(c3nccc4sccc34)CC2)C(=O)C1` [Example 24, 4,4-Dimethyl-1-[4-[4-(thieno[3,2-c]pyridin-4-yl)-1-piperazinyl]butyl]-2,6-piperidinedione] the ED50 [1] was > 24 mg/kg, the ED50 [4] was 40 mg/kg and the ED50 [2] was 6 mg/kg. The ED50 [3] was > 20 mg/kg.

In the case of `O=C1CCCC(=O)N1CCCCN1CCN(c2nccc3sccc23)CC1` [Example 58], the “Catalepsy Induction ED50” value [5] was “Inactive at 4 ×”, the ED50 [4] was 56 mg/kg and the ED50 [2] was 5 mg/kg. The ED50 [3] was > 20 mg/kg.

For `Cc1cc2c(N3CCN(CCCC(O)c4ccc(F)cc4)CC3)nccc2o1` (centres unmarked) [Example 43], the ED50 [2] was 23 mg/kg and the ED50 [3] was > 20 mg/kg.

For `Cn1ccc2c(N3CCN(CCCCN4C(=O)COCC4=O)CC3)nccc21` [Example 48], the ED50 [4] was > 100 mg/kg, the ED50 [2] was > 100 mg/kg and the ED50 [3] was > 20 mg/kg.

For `O=C1SC2(CCCC2)C(=O)N1CCCCN1CCN(c2nccc3ccsc23)CC1` [Example 36], the ED50 [4] was 47 mg/kg, the ED50 [2] was 43 mg/kg and the ED50 [3] was > 20 mg/kg.

For `O=C1SC2(CCCC2)C(=O)N1CCCCN1CCN(c2nccc3sccc23)CC1` [Example 26], the ED50 [4] was 35 mg/kg, the ED50 [2] was 12 mg/kg and the ED50 [3] was > 20 mg/kg.

With `O=C1CSCC(=O)N1CCCCN1CCN(c2nccc3sccc23)CC1` [Example 31] the ED50 [1] was > 128 mg/kg, the ED50 [2] was 32 mg/kg and the ED50 [3] was > 20 mg/kg.

For `CC1(C)CC(=O)N(CCCCN2CCN(c3nccc4occc34)CC2)C(=O)C1` [Example 38], the ED50 [1] was 13 mg/kg, the ED50 [4] was 7 mg/kg and the ED50 [2] was 4 mg/kg. For the same compound, the ED50 [3] was > 20 mg/kg.

For `O=C1COCC(=O)N1CCCCN1CCN(c2nccc3occc23)CC1` [Example 25, 4-[4-[4-(4-Furo[3,2-c]pyridinyl)-1-piperazinyl]butyl]-3,5-morpholinedione], the ED50 [1] was > 46 mg/kg, the ED50 [4] was 34 mg/kg and the ED50 [2] was 11 mg/kg. It also gave an ED50 [3] of 2 mg/kg.
